# What was measured:
# Format in all cases: cell-based
# [1] = test system: Human umbilical vein endothelial cells; experiment: Nesprin distribution at the nuclear envelope in 3-D fibrin gels; details: VEGF/HGF-stimulated
# From the text: Physical interactions between cytoskeletal networks and the nucleus are mediated by a family of Klarsicht, ANC-1, Syne homology (KASH) domain-containing proteins. The C-terminal domains of the proteins are embedded within the outer nuclear membrane, where they interact with the inner nuclear membrane via members of the SUN protein family (Crisp et al., 2006. J. Cell Biol., 172: 41-53; Dechat et al., supra; Starr, supra; Stewart et al., supra; Wilhelmsen et al., 2006. J. Cell Biol., 171: 799-810). In turn, SUN proteins span the inner nuclear membrane to establish binding interactions with a scaffold of lamin family members and nuclear pore complexes (Dechat et al., supra; Starr, supra; Stewart et al., supra). To determine whether this interaction plays a role in the nuclear morphology regulation by ECM remodeling, expression of nesprins-1 and 2 (also termed Syne-1 and 2) nesprin-3 was examined in 3-D-embedded endothelial cells. Nesprins-1 and 2 bind F-actin, while nesprin-3 indirectly interacts with intermediate filaments via binding of plectin (Crisp and Burke, 2008. FEBS Lett., 582: 2023-2032; Starr, supra; Stewart et al., supra).
# [2] = test system: Human umbilical vein endothelial cells; experiment: Protein synthesis in 3-D-embedded endothelial cells; details: growth factor-stimulated cells
# From the text: The laminar network of type A and type B lamins directly or indirectly binds chromatin and DNA, as well as a variety of inner nuclear membrane proteins functionally linked to nuclear architecture and mechanical integrity, chromatin organization, gene regulation, and DNA replication (Crisp and Burke, supra; Dechat et al., supra; Starr, supra).
# human endothelial cells [3] = experiment: Fn matrix assembly by endothelial cells in 3-D fibrin gel, confocal laser microscopy
# Description: Endothelial cells were isolated from human umbilical cord veins by collagenase digestion and cultured in Medium 199 (Gibco) containing 20% human serum, 50 μg/ml endothelial cell growth supplement (BD Biosciences), 100 U/ml penicillin, and 100 μg/ml streptomycin (Hiraoka et al. 1998. Cell, 95(3): 365-377). For 2-D/3-D culture, endothelial cell monolayers (no later than third passage) were suspended by mild trypsinization and dispersed within or plated atop fibrin (3 mg/ml) or collagen (2.2 mg/ml) gels (prepared as described in Hiraoka, supra, and Hotary et al. 2003. Cell, 114(1): 33-45), and stimulated with a cocktail of growth factors including 100 ng/ml human vascular endothelial growth factor (Genentech), 50 ng/ml human hepatocyte growth factor (Genentech), 10 ng/ml human TGFα (Biosource), 0.5 ng/ml TGFβ1 (R and D Systems), and 100 μg/ml heparin (Sigma). In selected experiments, endothelial cell spheroids were prepared and suspended in 3-D fibrin gels.
# The effect of Fn matrix assembly, or lack thereof, on endothelial cell function during neovascularization was assessed. Human serum was depleted of Fn by gelatin-sepharose affinity chromatography (Amersham) and supplemented with either 20 μg/ml of human plasma Fn (Sigma) or FITC-labeled Fn. […]
# (Chernousov et al. 1991. J. Biol. Chem., 266(17): 10851-10858; Tomasini-Johansson et al. 2001. J. Biol. Chem., 276(26): 23430-23439; Mao and Schwarzbauer. 2005. Matrix Biol., 24(6): 389-399; and Tomasini-Johansson et al. 2006. Matrix Biol., 25(5): 282-293). […] Cell number in 3-D cultures was determined by hemacytometry after dissolving gels with 2 mg/ml bacterial collagenase (Worthington) while the number of patent tubules was determined in randomly selected cross-sections. Fn matrix assembly and cell morphology were monitored by confocal laser microscopy. To examine cell migration, endothelial cells were embedded in a 100 μl fibrin gel for 2 hours, then placed within a 500 μl gel for 8 days in the presence of Del29, FUD, control IgG, or L8, after which migration from the inner gel was assessed. […]
# human endothelial cells [4] = experiment: Intracellular nanorheology (bead tracking) of 3-D-embedded endothelial cells
# From the text: Endothelial cells cultured atop highly malleable surfaces retain a spherical configuration, fail to organize stress fibers, and are unable to exert tractional forces—a phenotype identical to that observed in 3-D-embedded, Fn matrix assembly-incompetent endothelial cells. A cell's internal stiffness is a viscoelastic property governed by cytoskeletal assembly, actin crosslinking, and the production of actomyosin-dependent stress. Internal stiffness changes as a function of the perceived stiffness of the surrounding substratum (Solon et al. 2007. Biophys. J., 93(12): 4453-4461). Therefore, the micromechanical properties of 3-D-embedded endothelial cells were monitored via intracellular nanorheology.
# Prior to embedding in the 3-D fibrin matrix, endothelial cells were ballistically microinjected with 100 nm polystyrene beads to circumvent the endocytic pathway and subsequent directed motion of the beads. After 3 days of incubation, the beads dispersed in the cytoplasm and their centroids were tracked with high spatial and temporal resolution using fluorescence microscopy. […] Elastic moduli, which quantify the local resistance of the cytoplasm against small random forces acting on the surface of the beads, were derived from MSD curves to quantify cellular mechanical properties.
# In the absence of Fn fibrillogenesis, an impaired ability of embedded endothelial cells to generate myosin-dependent forces and increase cytoplasmic stiffness was predicted to affect both Fn unfolding, as well as the ability of the cells to properly register the mechanical properties of the surrounding substratum (Wu et al. 1995. Cell, 83(5): 715-724; Zhong et al. 1998. J. Cell Biol., 141(2): 539-551; Baneyx et al. 2002. Proc. Natl. Acad. Sci. USA, 99(8): 5139-5143; Discher et al. 2005. Science, 310(5751): 1139-1143; Engler, supra; and Yoneda, supra). As such, the rheologic and functional characteristics of endothelial cells were assessed in the presence of the specific myosin ATPase inhibitor, blebbistatin. […]
Compound,nesprin distribution at the nuclear envelope [1],protein synthesis [2],"pericellular Fn matrix assembly (human endothelial cells [3]; 2 days, 50 μM blebbistatin)","cytoplasmic stiffness (human endothelial cells [4]; 3-D fibrin gel, 50 μM blebbistatin)","Fn matrix assembly (Fn polymerization) (human endothelial cells [3]; growth factor cocktail, FUD or Del29 250 nM, L8 or 9D2 100 μg/ml, 70 kDa Fn fragment 75 μg/ml)","mean square displacement (MSD) of the beads (human endothelial cells [4]; 3-D fibrin matrix, 3 days, relative to control cells)","elastic modulus of the cytoplasm (human endothelial cells [4]; 3-D fibrin matrix, versus control cells, P<0.001)"
CNC(=O)[C@H](Cc1c[nH]c2ccccc12)NC(=O)[C@@H](CC(=O)NO)CC(C)C [GM6001],irregular nesprin distributions,no major changes,–,–,–,–,–
Cc1ccc2c(c1)C(=O)C1(O)CCN(c3ccccc3)C1=N2 (stereo not drawn) [blebbistatin],–,–,failed to assemble,failed to increase,–,–,–
"FUD: 49-residue functional upstream domain of Streptococcus pyogenes F1 adhesion protein, SEQ ID NO: 10; fibronectin fibril assembly inhibitor (KDQSPLAGESGETEYITEVYGNQQNPVDIDKKLPNETGFSGNMVETEDT; Streptococcus pyogenes; Functional Upstream Domain (FUD) of F1 adhesion protein)",irregular nesprin distributions,no major changes,–,–,attenuated,significantly increased,significantly lower
